Data taken from US20090017038A1, “Sigma-2 Receptor, Method of Screening of Specific Ligands and Use of the Same in Diagnostic or Therapeutic Methods” (priority 2006, published 2009).
One block for each compound: values may come before it.

Tests used:
[1] = system: sigma-2 receptor (affinity chromatography-eluted proteins from SK-N-SH membranes); test: saturation binding analysis with [3H]-DTG on affinity column-eluted proteins; set-up: species or system human; conditions: [3H]-DTG saturation, FIG. 2A
Method: The samples, containing 400 μg of protein, radioligand, 10 μM of unlabeled DTG to determine nonspecific binding, and 1 μM of (+)-pentazocine to mask the sigma-1 receptors, were brought to equilibrium Into a final volume of 500 μL 50 mM Tris-HCl at pH 8.0 for 120 min at 25° C. At equilibrium, 5 mL buffer (50 mM Tris-HCl, pH 7.4) were added. Samples were filtered on GF/C membranes, acclimatized in 0.5% PEI for 30 min prior to use. Filters were washed twice with the buffer (5 mL). Radioactivity count was performed on a LS-6500 Beckman Scintillation Counter.

sigma-2 receptor [2] = target: T1, sigma-2 receptor (Homo sapiens, UniProt Q5BJF2); test: sigma-2 receptor activity
sigma-2 receptor [3] = target: T1, sigma-2 receptor; test: sigma-2 receptor affinity; assay type: binding
sigma-2 receptor [4] = target: T1, sigma-2 receptor; conditions: literature (Perrone 2000; Berardi 1996); cited from earlier work
sigma-2 receptor [5] = target: T1, sigma-2 receptor; conditions: literature (Perrone 2000; Berardi 1996); cited from earlier work; remark: listed apart in the source
[6] = system: neuroblastoma or glioma tumour cells; test: antiproliferative assay (MTT); assay type: cell-based
Method: (§1) The antiproliferative assay for compounds was performed by using the MTT assay (Mossman et al. 1983, J. Immunol. Methods 65, pp 55-63). The cytotoxicity assay was performed by measuring the LDH level as reported by Vilner and Bowen 2000, J. Pharmacol. Exp. Ther. 292, pp 408-413. The detailed experimental part is reported in Colabufo et al. 2004, Naunyn Schmiedeberg's Arch. Pharmacol. 370, pp. 106-113.

[7] = target: mixture of the affinity column-eluted histone proteins (sigma-2 receptor); test: competition binding assay with [3H]-DTG on mixture of affinity column-eluted histone proteins; set-up: species or system human; conditions: 20 mcg histone proteins, radioligand [3H]-DTG
Method: The formation of a complex was highlighted through an assay in which the histone proteins were suspended in 50 mM Tris pH 8.0. […] At equilibrium, determined by the above-mentioned kinetic studies, the histone/radioligand complex was separated after 120 min by filtration on glass fiber (GF/C) membranes, and quantification of the same was performed by radioactivity count.
The sample was incubated for 120 min at 25° C., then the histone/radioligand complex was rapidly filtered on ø 25 mm GF/C membranes. The filter was washed twice with 3 mL buffer. Scintillation liquid was added and a radioactivity reading was performed. The displacement rate was calculated as difference (%) with respect to the specific binding measures by using 10 μM of DTG.

[8] = system: neuroblastoma or glioma tumour cells; test: cytotoxicity assay (LDH level); assay type: cell-based
Method: as §1

T1 sequence (Q5BJF2 whole entry, species assumed): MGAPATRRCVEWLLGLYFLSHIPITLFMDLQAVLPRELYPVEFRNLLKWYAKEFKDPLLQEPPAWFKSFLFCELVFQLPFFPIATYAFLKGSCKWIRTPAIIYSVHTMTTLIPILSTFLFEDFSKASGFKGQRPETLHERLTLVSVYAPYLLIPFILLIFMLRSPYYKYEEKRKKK

Compound: Cc1ccccc1N=C(N)Nc1ccccc1C [[^3H]-DTG]
- Bmax [1]: 588±50 fmol/mg of protein

- sigma-2 activity of amino-substituted ligand relative to PB28 (sigma-2 receptor [2]): unmodified
- affinity of amino-substituted ligand relative to PB28 (sigma-2 receptor [3]): unmodified
Compound: COc1ccc(N)c2c1CCCC2CCCN1CCN(C2CCCCC2)CC1 (centres unmarked) [compound 2, 1-cyclohexyl-4-[3-(8-amino-5-methoxy-1,2,3,4-tetrahydronaphtalen-1-yl)propyl]piperazine]

Compound: COc1cccc2c1CCCC2CCCN1CCN(C2CCCCC2)CC1 (centres unmarked) [PB28]
- affinity for sigma-2 receptor (sigma-2 receptor [4]): high affinity
- agonist activity at sigma-2 receptor (sigma-2 receptor [5]): potent agonist activity

- Ki [7]: 0.068 nM
Compound: COc1ccccc1[C@H]1CC[C@H](N2CCN(C3CCCCC3)CC2)CC1 [trans-1-cyclohexyl-4-[4-(2-methoxy-phenyl)cyclohexyl]piperazine]
- antiproliferative activity [6]: homogeneous to results reported in literature for the best ligand known to date: the compound PB28
- cytotoxic activity [8]: homogeneous to results reported in literature for the best ligand known to date: the compound PB28
